One data set deals with Cdc42 (Homo sapiens, UniProt P60953). The experiment in a line: Nucleotide association assay, induced by EDTA. Format: biochemical. Details: purchased Cytoskeleton, Inc. As to conditions: for EDTA-induced nucleotide loading of N-MAR-GTP on Cdc42: 2 and 10 μmol/L. How it is done:
The nucleotide loading on purified Rho GTPases was monitored using a fluorophore-based Rho GEF Exchange Assay Kit as per manufacturer's instructions (Cytoskeleton, Inc.). Drugs were diluted in exchange buffer and incubated with Rac1, Cdc42, or RhoA. The uptake of fluorescent nucleotide analog N-methylanthraniloyl-GTP (N-MAR-GTP) was measured as an increase in fluorescence due to binding to the nucleotide binding pocket of a GTPase. The fluorimeter was set at 20°C on kinetic mode and N-MAR GTP was detected at […]. After the initial five readings (T0), GEFs (Dbs or Vav2) or Ethylenediaminetetraacetic acid (EDTA) was added to stimulate exchange and readings were obtained every 30 seconds for at least 60 cycles.

In a further data set the test system is HMEC cells. The experiment in a line: Cell viability (MTT) assay. Format: cell-based, human. The settings on record: 120 hours, 0 to 1,000 nmol/L. How it is done: (§1) Using CellTiter 96 Non-Radioactive Cell Proliferation Assay (Promega, Corp.) according to manufactures’ instructions, formazan was used as an indicator of viable cells at an absorbance 570 nm in a Tecan Microplate Reader M100 (Tecan). Data were calculated as fold change from vehicle and transformed to logarithm base 10. 0 concentration was replaced with 1 nmol/L to fit using the 4-parameter logic nonlinear regression model in GraphPad Prism software. (n = 3 biologic replicates: with three technical replicates each).

Data set [1] has as its system MDA-MB-231 cells. The experiment in a line: Wound healing assay. In kind it is cell-based, human. The settings on record: 250 nmol/L; 12 and 24 hours. How it is done: MDA-MB-231 cells were plated on 12-well plates at equal cell density until confluent. Then the media was changed to 1% FBS, and a single scratch was made in the center of the monolayer culture with a pipet tip. Compounds were added immediately at 250 or 500 nmol/L and images were digitally acquired from a Keyence microscope (10×) at 0, 12, and 24 hours. The scratch area was quantified in ImageJ using the Macro Wound Healing Tool (http://dev.mri.cnrs.fr/projects/imagej-macros/wiki/Wound_Healing_Tool; n = 3 biologic replicates: with three technical replicates each).

In data set [2] the test system is Rac, Cdc42, RhoA, PAK, and p-PAK. The experiment in a line: Western blot of tumor lysates from treated mice. Format: in vivo, SCID mice. The settings on record: GFP-HER2-BM tumors, 5 mg/kg BW, 53 days. The text has this: Treatments continued until sacrifice at day 53.
Total cell lysates or pulldowns were Western blotted using routine procedures. The primary antibodies used were anti-Rac (Cell Signaling Technology), anti-Cdc42 (Abcam), anti-PAK1+PAK2+PAK3 (Cell Signaling Technology), anti-pPAK1 (T423)/PAK2 (T402; Abcam), anti-PAK1 + PAK2 + PAK3 (phospho T423; Abcam), Rac1B, and β-actin (Millipore-Sigma).
(In general: In western blotting, separated proteins are transferred to a membrane and probed.)

In data set [3] the test system is MDA-MB-231 cells. The experiment in a line: Phalloidin staining of F-actin, cell phenotype. In kind it is cell-based, human. The settings on record: 250 nmol/L, 12 hours. From the text:
Cells were fixed, permeabilized, and stained with rhodamine phalloidin to visualize F-actin as described previously ([23]). Fluorescence micrographs were acquired at 40× in a Keyence fluorescence microscope.

For data set [4], the system named is GFP-HER2-BM mammary fatpad tumors. The experiment in a line: Orthotopic spontaneous metastasis mouse model. Format: in vivo. As to conditions: for weight and liver toxicity (aspartate transaminase and alanine transaminase from plasma): 5× a week at 5 mg/kg for 53 days. How it is done:
All animal studies were conducted under approved protocol A8180118 Institutional Animal Care and Use Committee, in accordance with the NIH Guideline for the Care and Use of Laboratory Animals. Female SCID mice, 3–4 weeks old (Charles River Laboratories, Inc.), were maintained under pathogen-free conditions in High Efficiency Particulate Air (HEPA)-filtered cages.
GFP-HER2-BM (∼7 × 10^5) cells in Matrigel (BD Biosciences) were injected at the fourth right mammary fat pad under isoflurane inhalation (1%–3% in oxygen using an inhalation chamber at 2 L/minute) to produce orthotopic primary tumors. After tumor establishment (1-week after inoculation), animals were randomly divided into treatment groups (n = 5).
[…]. Treatments continued until sacrifice at day 53.
Mammary tumor growth was quantified by integrated density of GFP fluorescence. After tumor establishment, mice were imaged before starting treatment, and once a week thereafter for 53 days, using the iBoxScientia (Analytik-Jena GmbH). Tumor fluorescence intensities were analyzed using ImageJ software (NIH, Bethesda, MD). Relative tumor growth was calculated as the integrated density of fluorescence of each tumor on each day of imaging relative to the integrated density of fluorescence of the same tumor on day 1 of treatment. After sacrifice at day 60, lungs, kidneys, livers, and spleens were excised and immediately stored in liquid N2. To quntify metastasis, stored organs were thawed and analyzed, as whole organs on both sides, using an Olympus MV10 fluorescence macro zoom system microscope and images acquired with an Olympus DP71 digital camera. The fluorescent lesions (green component of RGB images) were quantified for integrated density of fluorescent pixels using Image J software.

Another data set deals with MCF7 breast cancer cells. The experiment in a line: Cell viability (MTT) assay. In kind it is cell-based, human. As to conditions: 250 nmol/L, 120 hr. The method, then: as §1
Supplementary Figure S1. Percentage cell viability of MDA-MB-231, GFP-HER2-BM, […]
nM for 120 hr. The bar graphs are presented as individual fold change data points from vehicle and grouped mean ± SEM. (n = 3; *, P < 0.05; ** P < 0.01).
(1 picture or pasted object on this page, not shown here)

A further data set has as its system GFP-HER2-BM cells. The experiment in a line: Cell viability (MTT) assay. The settings on record: for GI50: 0 to 1,000 nmol/L. In kind it is cell-based, human. How it is done:
as §1
(§2) All half maximal growth inhibitory concentration (GI50) values were determined by using the 4-parameter logistic curve model in GraphPad Prism 9 software. Statistical analyses were done also using GraphPad Prism 9 software, and differences were considered statistically significant at P ≤ 0.05 using ordinary one-way ANOVA or unpaired Student t test with Dunnet multiple comparison tests.

The test system of another data set is MCF10A cells. The experiment in a line: Cell viability (MTT) assay. As to conditions: for inhibition of cell viability: 250 nmol/L, 120 hr; for GI50: Homo sapiens, MCF-10A, 120 hours, 0 to 1,000 nmol/L. In kind it is cell-based, human. The method, then:
as §1, §2

In data set [5] the test system is MDA-MB-231 cells. The experiment in a line: Cell viability (MTT) assay. In kind it is cell-based, human. As to conditions: for inhibition of cell viability: 250 nmol/L, 120 hr; for GI50: 120 hours, 0 to 1,000 nmol/L. How it is done: as §1, §2
Setting [6] is: 5 mg/kg BW, intraperitoneal, 53 days.

Chain of Cdc42 (P60953 whole entry): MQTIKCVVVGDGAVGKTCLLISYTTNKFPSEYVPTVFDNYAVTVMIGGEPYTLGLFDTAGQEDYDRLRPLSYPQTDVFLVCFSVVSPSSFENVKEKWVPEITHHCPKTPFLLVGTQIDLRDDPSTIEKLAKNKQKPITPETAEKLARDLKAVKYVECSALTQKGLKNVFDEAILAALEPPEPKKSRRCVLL

On to `CCn1c2ccccc2c2cc(-n3nncc3-c3ccccc3)ccc21` [MBQ-167], for which the “EDTA-induced nucleotide loading of N-MAR-GTP on Cdc42” value on Cdc42 is reported as “inhibited the nucleotide loading of N-MAR-GTP at 10 μmol/L”. In addition, in the data set on HMEC cells, the “effect on viability of HMECs” value was “did not affect the viability of HMECs”. Further, the wound closure entry in the data set on MDA-MB-231 cells [1] is “wound area was maintained at 12 and 24 hours”. The “Cdc42 and RhoA levels” value in [2] was “remain unaffected”. The “reduction of Thr 423 phosphorylation in PAKs 1, 2, 3 compared with vehicle” value in data set [2] was “approximately 50%”. The “reduction of p-Serine 141,144,154 levels in PAK1, 2, and 3” value in [2] is “did not show changes”. The “total Rac, and PAK1/2/3 levels” value in [2] is “Decreases were observed”. Besides, in the data set with MDA-MB-231 cells [3], the “cell phenotype, actin cytoskeleton” value is on record as “acquired a round shape with punctate actin staining”. The “inhibition in tumor growth compared with vehicle” value in [4] (setting [6]) is on record as “approximately 90%”. In [4] (setting [6]), the “inhibition of lung, liver, and kidney metastases compared with vehicle” value is reported as “approximately 90%”. Moreover, the “weight and liver toxicity (aspartate transaminase and alanine transaminase from plasma)” value in data set [4] is listed as “did not significantly change weight or liver toxicity”. Moreover, the “inhibition of cell viability” value with MCF7 breast cancer cells is 40%; in the data set with GFP-HER2-BM cells (250 nmol/L, 120 hr), “approximately 85%”; with GFP-HER2-BM cells (500 nmol/L, 72 hours), “approximately 75%”; in the data set with MCF10A cells, 30%; in the data set with MDA-MB-231 cells [5] it was 50%. For the same compound, the concentration for 50% growth inhibition (GI50) is approximately 160 nM in the data set with GFP-HER2-BM cells (120 hours); 163 nM in the data set on GFP-HER2-BM cells (Homo sapiens, 120 h); 296 nM in the data set on MCF10A cells; approximately 160 nM in the data set on MDA-MB-231 cells [5]; 162 nM in the data set with MDA-MB-231 cells [5] (Homo sapiens, MDA-MB-231, 120 h).
Consider `CCn1c2ccccc2c2cc(-n3nncc3-c3cccc(OC)c3)ccc21` [MBQ-168], for which, on Cdc42 (10 μmol/L, N-MAR-GTP, read-out: inhibition of EDTA-induced GTP exchange on Cdc42), the inhibition at 10 µM is 100%. For the same compound, the “EDTA-induced nucleotide loading of N-MAR-GTP on Cdc42” value on Cdc42 was “reduced nucleotide loading at both 2 and 10 μmol/L”. Also, the “effect on viability of HMECs” value in the data set on HMEC cells is on record as “did not affect the viability of HMECs”. For the same compound, the wound closure result in the data set with MDA-MB-231 cells [1] is “wound area was maintained at 12 and 24 hours”. Also, the “Cdc42 and RhoA levels” value in [2] is on record as “remain unaffected”. Also, the “reduction of Thr 423 phosphorylation in PAKs 1, 2, 3 compared with vehicle” value in data set [2] was “approximately 50%”. Moreover, the “reduction of p-Serine 141,144,154 levels in PAK1, 2, and 3” value in data set [2] was “approximately 75%”. For the same compound, the “total Rac, and PAK1/2/3 levels” value in data set [2] is reported as “Decreases were observed”. Moreover, in the data set on MDA-MB-231 cells [3], the “cell phenotype, actin cytoskeleton” value is “acquired a round shape with punctate actin staining”. The “inhibition in tumor growth compared with vehicle” value in data set [4] (setting [6]) is listed as “approximately 90%”. Moreover, the “weight and liver toxicity (aspartate transaminase and alanine transaminase from plasma)” value in data set [4] is listed as “did not significantly change weight or liver toxicity”. Moreover, the “inhibition of cell viability” value in the data set on MCF7 breast cancer cells is 40%; in the data set with GFP-HER2-BM cells (250 nmol/L, 120 hr), “approximately 85%”; in the data set on GFP-HER2-BM cells (500 nmol/L, 72 hours), “approximately 75%”; in the data set on MCF10A cells, 30%; in the data set with MDA-MB-231 cells [5], 50%. The GI50 with GFP-HER2-BM cells (Homo sapiens, 120 hours) turned out to be 171 nM; with MCF10A cells, 304 nM; with MDA-MB-231 cells [5] (Homo sapiens, MDA-MB-231) it was 199 nM.

In general, GI50 refers to the concentration at which growth is held to half of that of the control. What is called inhibition is the relative decrease from the control value, in per cent.

Values taken from PMC9970268 (Cancer Research Communications, 2022).
